Assay results from patent publication US6967205B1, “Compounds with antibacterial and antiparasitic properties” (New Pharma Research Sweden AB, priority 1999, dated 2005).
In brackets after ≈: the same amount, converted by molar mass. Several values for one entry are separate records, joined by “and”; a condition that tells them apart may be missing. Equal values may be shown once.

Legend:
M. gallisepticum = test: M.I.C. against Mycoplasma in microtitre plates (Tanner and Wu); format: cell-based; details: in vitro; for MIC: Mycoplasmoides gallisepticum
Description: The M.I.C. values of the compounds JA 1, JA 3, JA 5, JA 12, JA 42 and JA 43 were determined in vitro against M. gallisepticum. Enrofloxacin, tylosin and oxytetracyclin were used as reference compounds. The tested compounds were all stored and applied as solutions in distilled water. The M.I.C. evaluation was performed in microtitre plates, and the methodology employed was basically that of Tanner and Wu (Avian Disease, 36:714-717 (1992)).

Bacillus cereus = test: M.I.C. by broth dilution method (NCCLS 1988), gram-positive bacteria; format: cell-based; details: in vitro broth dilution
Description: (§1) The antibacterial activity of the present compounds was investigated by in vitro evaluation of their M.I.C. (Minimum Inhibitory Concentration) values. The evaluation was conducted in complete accordance with the “Broth dilution method”, as outlined by the U.S. National Committee for Clinical Laboratory Standards “NCCLS 1988”.
(§2) Solutions of the present compounds were prepared by dissolving 0.01 g of a test compound in either 10% KOH (aq) or a 10% KOH/DMF mixture, after which sterile, distilled H2O was added up to a total volume of 10 ml, thereby yielding a test compound concentration of 1 000 μg/ml.
(§3) In this evaluation, the antibacterial activity of the present compounds and enrofloxacin as reference compound was tested against seven strains of gram-positive bacteria, namely Bacillus subtilus (ATCC 6633), Bacillus cereus, Streptococcus faecium, Micrococcus Luteus (ATCC 9341), Staph. aureus (ATCC 29737), Staph. epidermidis (ATCC 12228) and Staphylococcus (ATCC 6538).

[1] = test system: Bacillus subtilus (ATCC 6633); test: as above; format: cell-based; details: ATCC6633, in vitro broth dilution
Description: as §1, §2, §3

[2] = test system: Micrococcus Luteus (ATCC 9341); test: as above; format: cell-based; details: ATCC9341, in vitro broth dilution, read-out: M.I.C. values Microc. Luteus
Description: as §1, §2, §3

[3] = test system: Staph. aureus (ATCC 29737); test: as above; format: cell-based; details: Staphylococcus aureus, ATCC29737, in vitro broth dilution
Description: as §1, §2, §3

[4] = test system: Staph. epidermidis (ATCC 12228); test: as above; format: cell-based; details: Staphylococcus epidermidis, ATCC12228, in vitro broth dilution
Description: as §1, §2, §3

[5] = test system: Staphylococcus (ATCC 6538); test: as above; format: cell-based; details: ATCC6538, in vitro broth dilution, read-out: M.I.C. values Staph. (ATCC 6538)
Description: as §1, §2, §3

Streptococcus faecium = test: as above; format: cell-based; details: Enterococcus faecium, in vitro broth dilution, read-out: M.I.C. values Streptoc. faecium
Description: as §1, §2, §3

T. evansi = test: Antitrypanosomal activity in vivo in white albino rats (Giemsa blood smears); details: individual animals
Description: The antitrypanosomal activity of the present compounds was evaluated in vivo on 40 white albino rats. The rats were divided into 4 groups of 10 rats each. The rats were then inoculated intraperitoneally with 10^3 organisms of T. evansi (isolated from blood of naturally infected camels) in accordance with known methodology (see Kolmer, J. A., J. Infect. Dis., 17:78-95 (1915)). The progress of the infection was monitored with the aid of standard Giemsa procedure (see Cruickshank, R., Handbook of Bacteriology, E and S Livingstone Ltd., Edinborough and London, 1961), whereby peripheral blood samples from the rats were examined under microscope. The number of Trypanosoma organisms in every blood sample was calculated and classified as follows (the numbers below are given for fields examined on a microscope slide): • +++=>10 organisms • ++=5-10 organisms • +=1-4 organisms • 0=no organisms detected
On day 1 post infection, each group of rats was subcutaneously injected with a single dose of tested compound in an amount of 50.0 mg/kg body weight. The following drugs were administered:
Group #4: saline solution (control group)

[6] = test system: E. mitis, E. hagani, E. praecox, E. acervulina, E. maxima, E. necatrix, E. tenella and E. brunetti; test: Prophylactic anticoccidial effect, additional trials in chickens of Habbared X breed (8 Eimeria strains); format: in vivo; details: B700 100 ppm
Description: In yet another evaluation of the prophylactic anticoccidial effect of the present compounds, additional trials on chickens of Habbared X breed were performed. The same test protocol as the one previously employed for this breed of chickens was used, albeit with the following following modifications: • i) On day 8 after hatch, the chickens received feed containing B700 (100 ppm), JA 3 (200 ppm) or Coxistac (100 ppm); • ii) On day 11 after hatch, the chickens were infected orally by oocysts containing a mixture of 8 mature sporulated strains, namely E. mitis, E. hagani, E. praecox, E. acervulina, E. maxima, E. necatrix, E. tenella and E. brunetti. The results of this evaluation were slightly unexpected.

Row | Compound | MIC (Bacillus cereus) | MIC [1] | MIC [2] | MIC [3] | MIC [4] | MIC [5] | MIC (Streptococcus faecium) | MIC (M. gallisepticum; microtitre plates) | other results
1 | CN(C)[C@@H]1C(=O)C(C(N)=O)=C(O)[C@@]2(O)C(=O)C3=C(O)c4c(O)cccc4[C@@](C)(O)[C@H]3[C@H](O)[C@@H]12 [Oxytetracyclin, oxytetracyclin, reference compound] | – | – | – | – | – | – | – | – | M.I.C. values against M. gallisepticum (M. gallisepticum; microtitre plates): 0.12
2 | CCN1CCN(c2cc3c(cc2F)c(=O)c(C(=O)O)cn3C2CC2)CC1 [Enrofloxacin, enrofloxacin, reference compound] | 0.25 µg/mL (≈ 0.696 µM) | 0.5 µg/mL (≈ 1.39 µM) | 2 µg/mL (≈ 5.56 µM) | 0.25 µg/mL (≈ 0.696 µM) | 0.12 µg/mL (≈ 0.334 µM) | 0.12 µg/mL (≈ 0.334 µM) | 1 µg/mL (≈ 2.78 µM) | 0.06 µg/mL (≈ 0.167 µM) | –
3 | CC[C@H]1OC(=O)C[C@@H](O)[C@H](C)[C@@H](O[C@@H]2O[C@H](C)[C@@H](O[C@H]3C[C@@](C)(O)[C@@H](O)[C@H](C)O3)[C@H](N(C)C)[C@H]2O)[C@@H](CC=O)C[C@@H](C)C(=O)/C=C/C(C)=C/[C@@H]1CO[C@@H]1O[C@H](C)[C@@H](O)[C@@H](OC)[C@H]1OC [Tylosin, tylosin, reference compound] | – | – | – | – | – | – | – | 0.06 µg/mL (≈ 0.0655 µM) | –
4 | O=C(O)c1cn(C2CC2)c2cc(NCc3ccncc3)c(F)cc2c1=O [JA 68, 1-cyclopropyl-6-fluoro-4-oxo-7-[(4-pyridinylmethyl)amino]-1,4-dihydro-3-quinolinecarboxylic acid] | 0.06 µg/mL (≈ 0.17 µM) | 0.12 µg/mL (≈ 0.34 µM) | 2 µg/mL (≈ 5.66 µM) | 0.12 µg/mL (≈ 0.34 µM) | 0.25 µg/mL (≈ 0.708 µM) | 0.12 µg/mL (≈ 0.34 µM) | 1 µg/mL (≈ 2.83 µM) | – | Number of T. evansi per examined field (T. evansi; day 1 post infection (day of dosing), single s.c. dose 50.0 mg/kg): + (+=1-4 organisms); Number of T. evansi per examined field (T. evansi; day 3 post infection, single s.c. dose 50.0 mg/kg on day 1, 50 mg/kg): ++ (++=5-10 organisms) (9×) and 0 (0=no organisms detected); Number of T. evansi per examined field (T. evansi; day 5 post infection, single s.c. dose 50.0 mg/kg on day 1, 50 mg/kg): 0 (0=no organisms detected) (8×) and ++ (++=5-10 organisms) (2×); Number of T. evansi per examined field (T. evansi; day 7 post infection, single s.c. dose 50.0 mg/kg on day 1, 50 mg/kg): +++ (+++=>10 organisms) and 0 (0=no organisms detected) (9×); Number of T. evansi per examined field (T. evansi; day 9 post infection, single s.c. dose 50.0 mg/kg on day 1, 50 mg/kg): 0 (0=no organisms detected) (9×) and dead; Number of T. evansi per examined field (T. evansi; day 11 post infection, single s.c. dose 50.0 mg/kg on day 1, 50 mg/kg): 0 (0=no organisms detected) (9×) and dead; Number of T. evansi per examined field (T. evansi; day 13 post infection, single s.c. dose 50.0 mg/kg on day 1, 50 mg/kg): 0 (0=no organisms detected) (9×) and dead
5 | O=C(O)c1cn(C2CC2)c2cc(N3CCN(C(=O)Nc4ccc([N+](=O)[O-])cc4)CC3)c(F)cc2c1=O [B700, 1-cyclopropyl-6-fluoro-7-{4-[(4-nitroanilino)carbonyl]-1-piperazinyl}-4-oxo-1,4-dihydro-3-quinolinecarboxylic acid] | – | – | – | – | – | – | – | – | anticoccidial activity (in words) ([6]; JA 3 200 ppm in feed from day 8, infected day 11): significant anticoccidial activity; increased body weight gain as compared to the Coxistac treated group ([6]; JA 3 200 ppm, Coxistac 100 ppm): approximately 10%; total number of oocysts during the treatment compared to Coxistac group ([6]; JA 3 200 ppm, Coxistac 100 ppm): higher than for the group treated with Coxistac
6 | O=C(O)c1cn(C2CC2)c2cc(N3CCN(S(=O)(=O)c4ccccc4)CC3)c(F)cc2c1=O [JA 1, 1-cyclopropyl-6-fluoro-4-oxo-7-[4-(phenylsulfonyl)-1-piperazinyl]-1,4-dihydro-3-quinolinecarboxylic acid] | 0.06 µg/mL (≈ 0.127 µM) | 0.06 µg/mL (≈ 0.127 µM) | 0.5 µg/mL (≈ 1.06 µM) | 0.12 µg/mL (≈ 0.255 µM) | 0.06 µg/mL (≈ 0.127 µM) | 0.06 µg/mL (≈ 0.127 µM) | 0.5 µg/mL (≈ 1.06 µM) | 0.03 µg/mL (≈ 0.0636 µM) | antibacterial activity against M. gallisepticum (in words) (M. gallisepticum): high antibacterial activity
7 | O=C(O)c1cn(C2CC2)c2cc(N3CCN(S(=O)(=O)c4ccc(Cl)s4)CC3)c(F)cc2c1=O [JA 43, 7-{4-[(5-chloro-2-thienyl)sulfonyl]-1-piperazinyl}-1-cyclopropyl-6-fluoro-4-oxo-1,4-dihydro-3-quinolinecarboxylic acid] | 0.12 µg/mL (≈ 0.234 µM) | 0.25 µg/mL (≈ 0.488 µM) | 1 µg/mL (≈ 1.95 µM) | 0.12 µg/mL (≈ 0.234 µM) | 0.25 µg/mL (≈ 0.488 µM) | 0.03 µg/mL (≈ 0.0586 µM) | 1 µg/mL (≈ 1.95 µM) | 0.25 µg/mL (≈ 0.488 µM) | –
